The values that follow come from ChEMBL document CHEMBL1128160, “An attempt to synthesize prostanoid thromboxane A2 antagonists with an additional prostacyclin like quality” (Bioorg Med Chem Lett, 1995).

The target of experiment [1] is T1, Thromboxane A2 receptor (Homo sapiens) (UniProt P21731).
T1 sequence (whole entry): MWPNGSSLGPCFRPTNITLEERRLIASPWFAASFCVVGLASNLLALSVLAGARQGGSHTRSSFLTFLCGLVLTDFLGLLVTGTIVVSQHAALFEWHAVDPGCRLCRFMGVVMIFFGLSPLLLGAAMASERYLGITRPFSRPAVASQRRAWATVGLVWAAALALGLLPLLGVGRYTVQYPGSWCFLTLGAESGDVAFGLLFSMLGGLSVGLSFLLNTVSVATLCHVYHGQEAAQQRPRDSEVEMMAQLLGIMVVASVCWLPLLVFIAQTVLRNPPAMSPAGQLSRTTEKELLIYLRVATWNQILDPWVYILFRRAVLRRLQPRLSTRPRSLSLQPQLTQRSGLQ
The experiment can be described thus: Competition factor for Thromboxane A2 receptor binding affinity CF = (IC50-test)/(IC50-standard).

For a further experiment, the species on record is Homo sapiens. Kind of experiment: Inhibition of ADP-induced aggregation of human platelet rich plasma. In kind it is functional.
Experiment [2] deals with T1, Thromboxane A2 receptor (Homo sapiens). Kind of experiment: Competition factor was evaluated for Thromboxane A2 receptor binding affinity CF = (IC50-test)/(IC50-standard).
Experiment [3] has the same target. Kind of experiment: Competition factor was evaluated for Thromboxane A2 receptor binding affinity CF = (IC50-test)/(IC50-standard) by using [3H]iloprost agonist at 10 nM.

For the compound `Cc1ccc(S(=O)(=O)N[C@H]2CC/C(=N\OCC3CCCCC3)[C@@H]2C/C=C\CCCC(=O)O)cc1`, the CF in experiment [1] was found to be 1. In the experiment listed under Homo sapiens, this compound yielded an IC50 of 600 nM.

Take `O=C(O)CCC/C=C\C[C@@H]1[C@@H](NS(=O)(=O)c2ccc(Cl)cc2)CC[C@@H]1O`: the CF in experiment [1] was 0.68. Moreover, the IC50 in the experiment listed under Homo sapiens came to 190 nM.

With `O=C(O)CCC/C=C\C[C@H]1/C(=N/OCC2CCCCC2)CC[C@@H]1NS(=O)(=O)c1ccc(F)cc1`, the CF in experiment [1] was found to be 0.5. Also, the IC50 in the experiment listed under Homo sapiens was 1800 nM.

In experiment [1], `O=C(O)CCC/C=C\C[C@@H]1[C@H](O)CC[C@H]1NS(=O)(=O)c1ccc(F)cc1` yielded a CF of 26. For the same compound, inhibition in the experiment listed under Homo sapiens was half-maximal at 6000 nM (IC50).

In experiment [1], `O=C(O)CCC/C=C\C[C@H]1/C(=N/OC(c2ccccc2)c2ccccc2)CC[C@@H]1NS(=O)(=O)c1ccc(F)cc1` gave a CF of 6.9. Moreover, the IC50 in the experiment filed under Homo sapiens turned out to be 17000 nM.

Regarding `Cc1ccc(S(=O)(=O)N[C@H]2CCC(=O)[C@@H]2C/C=C\CCCC(=O)O)cc1`, the CF in experiment [1] was determined as 6.5. Also, the IC50 in the experiment filed under Homo sapiens was 670 nM.

In the case of `Cc1ccc(S(=O)(=O)N[C@H]2CC/C(=N\OC(c3ccccc3)c3ccccc3)[C@@H]2C/C=C\CCCC(=O)O)cc1`, the CF in experiment [1] was 4.5. Besides, the IC50 in the experiment filed under Homo sapiens worked out at 5600 nM.

For `O=C(O)CCC/C=C\C[C@H]1/C(=N/OC(c2ccccc2)c2ccccc2)CC[C@@H]1NS(=O)(=O)c1ccc(Cl)cc1`, the CF in experiment [1] came out at 4. This compound gave an IC50 in the experiment listed under Homo sapiens of 17000 nM.

`Cc1ccc(S(=O)(=O)N[C@H]2CC[C@H](O)[C@@H]2C/C=C\CCC(=O)O)cc1`: the CF in experiment [1] turned out to be 135. Further, the IC50 in the experiment filed under Homo sapiens worked out at 2500 nM.

In turn, `O=C(O)CC/C=C\C[C@@H]1[C@@H](NS(=O)(=O)c2ccc(Cl)cc2)CC[C@@H]1O` registered a CF in experiment [1] of 31. In the experiment listed under Homo sapiens, this compound returned an IC50 of 1800 nM.

The compound `Cc1ccc(S(=O)(=O)N[C@@H]2CC[C@@H](O)[C@H]2C/C=C\CCCC(=O)O)cc1` gave a CF in experiment [1] of 340. In the experiment filed under Homo sapiens, this compound returned an IC50 of 5800 nM.

`Cc1ccc(S(=O)(=O)N[C@H]2CC[C@H](O)[C@@H]2C/C=C\CCCC(=O)O)cc1`: the CF in experiment [1] is 7. In addition, in the experiment listed under Homo sapiens, inhibition was half-maximal at 500 nM (IC50).

In the case of `Cc1ccc(S(=O)(=O)N[C@H]2CC/C(=N\OCc3ccc(C(F)(F)F)cc3)[C@@H]2C/C=C\CCCC(=O)O)cc1`, the CF in experiment [1] was less than 1. In the experiment listed under Homo sapiens, the IC50 was 180 nM.

As to `O=C(O)CCC/C=C\C[C@H]1/C(=N/OCC2CCCCC2)CC[C@@H]1NS(=O)(=O)c1ccc(Cl)cc1`, in experiment [2], the CF stood at 0.62. The compound further gave a concentration for half-maximal inhibition (IC50) in the experiment filed under Homo sapiens of 1700 nM.

As for `O=C(O)CCC/C=C\C[C@@H]1[C@H](O)CC[C@H]1NS(=O)(=O)c1ccc(Cl)cc1`, the CF in experiment [1] worked out at 85. Moreover, the IC50 in the experiment filed under Homo sapiens amounted to 2200 nM.

`O=C(O)CCC/C=C\C[C@H]1C(=O)CC[C@@H]1NS(=O)(=O)c1ccc(F)cc1` had a CF in experiment [1] of 6.4. In addition, the IC50 in the experiment listed under Homo sapiens stood at 500 nM.

On to `O=C(O)CCC/C=C\C[C@@H]1[C@@H](NS(=O)(=O)c2ccc(F)cc2)CC[C@@H]1O`, for which the CF in experiment [1] amounted to 2.1. This compound also gave an IC50 in the experiment filed under Homo sapiens of 640 nM.

In experiment [1], `O=C(O)CCC/C=C\C[C@H]1/C(=N/OCc2ccc(C(F)(F)F)cc2)CC[C@@H]1NS(=O)(=O)c1ccc(F)cc1` returned a CF of 0.13. Inhibition in the experiment listed under Homo sapiens was half-maximal at 620 nM (IC50).

`O=C(O)CCC/C=C\C[C@H]1C(=O)CC[C@@H]1NS(=O)(=O)c1ccc(Cl)cc1` came in with a CF in experiment [1] of 2.6. The compound also displayed an IC50 in the experiment filed under Homo sapiens of 640 nM.

On to `C[C@@H]1CC/C(=N\OC(c2ccccc2)c2ccccc2)[C@H]1C/C=C\CCCC(=O)O`, for which the figures for the CF in experiment [1] and in experiment [3] were 175 and 25, respectively. Further, in the experiment filed under Homo sapiens, it took 800 nM to reach half-maximal inhibition (IC50).

In turn, `O=C(O)CC/C=C\C[C@@H]1[C@@H](NS(=O)(=O)c2ccc(F)cc2)CC[C@@H]1O` displayed a CF in experiment [1] of 200. This compound yielded an IC50 in the experiment filed under Homo sapiens of 1600 nM.

With `O=C(O)CCC/C=C\C[C@H]1/C(=N/OCc2ccc(C(F)(F)F)cc2)CC[C@@H]1NS(=O)(=O)c1ccc(Cl)cc1`, the CF in experiment [1] came to 0.07. For the same compound, the IC50 in the experiment filed under Homo sapiens was found to be 200 nM.
